# Source: the supplement of paper PMC10307832
# Legend:
# Assay in all cases: relative viability (nuclei count vs DMSO), 5 days (fraction); higher = more cells survive
# [1] = compound: C1=CC2=C(C=CC(=C2)C=C3C(=O)NC(=NCC4=CC=CS4)S3)N=C1 [RO-3306] + N=C(N)NC(=N)NCCc1ccccc1 [Phenformin] (partner 250 µM)
# In short: (§1)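 Lung cancer cell lines, seeded in 1536-well plates, were treated the following day by pin tool with a single drug or with five library-drug doses (not always all listed) in √10 steps on top of a fixed anchor-drug dose. Cells were fixed and nuclei stained in one step after 5 days, and nuclei were counted. Relative viability is the nuclei count for treated wells divided by that for vehicle wells, reported as medians of duplicate plates.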
# [2] = compound: C1=CC2=C(C=CC(=C2)C=C3C(=O)NC(=NCC4=CC=CS4)S3)N=C1 [RO-3306] + O=C(CCCCCCC(=O)Nc1ccccc1)NO [Vorinostat] (partner 1 µM)
# In short: as §1
# [3] = compound: C1=CC2=C(C=CC(=C2)C=C3C(=O)NC(=NCC4=CC=CS4)S3)N=C1 [RO-3306] + C[C@@H](Oc1cc(-c2cnn(C3CCNCC3)c2)cnc1N)c1c(Cl)ccc(F)c1Cl [Crizotinib] (partner 1 µM)
# In short: as §1
# [4] = compound: C1=CC2=C(C=CC(=C2)C=C3C(=O)NC(=NCC4=CC=CS4)S3)N=C1 [RO-3306] + NC(=O)Nc1cc(-c2cccc(F)c2)sc1C(=O)N[C@H]1CCCNC1 [AZD7762] (partner 0.2 µM)
# In short: as §1
cell line,measurement,setting,value
NCI-H3122,relative viability,[1]; first compound 0.01 µM,0.419
same,relative viability,[1]; first compound 0.03162 µM,0.612
same,relative viability,[1]; first compound 0.1 µM,0.397
same,relative viability,[1]; first compound 0.3162 µM,0.391
same,relative viability,[1]; first compound 1 µM,0.665
same,relative viability,[2]; first compound 0.01 µM,1.07
same,relative viability,[2]; first compound 0.03162 µM,0.825
same,relative viability,[2]; first compound 0.1 µM,0.993
same,relative viability,[2]; first compound 0.3162 µM,1.19
same,relative viability,[2]; first compound 1 µM,1.06
same,relative viability,[3]; first compound 0.01 µM,0.253
same,relative viability,[3]; first compound 0.03162 µM,0.262
same,relative viability,[3]; first compound 0.1 µM,0.244
same,relative viability,[3]; first compound 0.3162 µM,0.244
same,relative viability,[3]; first compound 1 µM,0.283
same,relative viability,[4]; first compound 0.01 µM,1.16
same,relative viability,[4]; first compound 0.03162 µM,1.06
same,relative viability,[4]; first compound 0.1 µM,0.973
same,relative viability,[4]; first compound 0.3162 µM,1.06
same,relative viability,[4]; first compound 1 µM,1.1
PC-3 [JPC-3],relative viability,[1]; first compound 0.01 µM,0.481
same,relative viability,[1]; first compound 0.03162 µM,0.517
same,relative viability,[1]; first compound 0.1 µM,0.467
same,relative viability,[1]; first compound 0.3162 µM,0.473
same,relative viability,[1]; first compound 1 µM,0.433
same,relative viability,[2]; first compound 0.01 µM,0.649
same,relative viability,[2]; first compound 0.03162 µM,0.629
same,relative viability,[2]; first compound 0.1 µM,0.648
same,relative viability,[2]; first compound 0.3162 µM,0.735
same,relative viability,[2]; first compound 1 µM,0.524
same,relative viability,[3]; first compound 0.01 µM,1.03
same,relative viability,[3]; first compound 0.03162 µM,0.971
same,relative viability,[3]; first compound 0.1 µM,0.965
same,relative viability,[3]; first compound 0.3162 µM,1.03
same,relative viability,[3]; first compound 1 µM,0.951
same,relative viability,[4]; first compound 0.01 µM,0.688
same,relative viability,[4]; first compound 0.03162 µM,0.673
same,relative viability,[4]; first compound 0.1 µM,0.769
same,relative viability,[4]; first compound 0.3162 µM,0.687
same,relative viability,[4]; first compound 1 µM,0.681
PC-14,relative viability,[1]; first compound 0.01 µM,0.616
same,relative viability,[1]; first compound 0.03162 µM,0.504
same,relative viability,[1]; first compound 0.1 µM,0.503
same,relative viability,[1]; first compound 0.3162 µM,0.595
same,relative viability,[1]; first compound 1 µM,0.499
same,relative viability,[2]; first compound 0.01 µM,1.03
same,relative viability,[2]; first compound 0.03162 µM,0.682
same,relative viability,[2]; first compound 0.1 µM,0.72
same,relative viability,[2]; first compound 0.3162 µM,0.796
same,relative viability,[2]; first compound 1 µM,0.682
same,relative viability,[3]; first compound 0.01 µM,0.977
same,relative viability,[3]; first compound 0.03162 µM,0.841
same,relative viability,[3]; first compound 0.1 µM,1.03
same,relative viability,[3]; first compound 0.3162 µM,0.864
same,relative viability,[3]; first compound 1 µM,0.836
same,relative viability,[4]; first compound 0.01 µM,0.28
same,relative viability,[4]; first compound 0.03162 µM,0.32
same,relative viability,[4]; first compound 0.1 µM,0.285
same,relative viability,[4]; first compound 0.3162 µM,0.426
same,relative viability,[4]; first compound 1 µM,0.251
RERF-LC-KJ,relative viability,[1]; first compound 0.01 µM,0.428
same,relative viability,[1]; first compound 0.03162 µM,0.445
same,relative viability,[1]; first compound 0.1 µM,0.416
same,relative viability,[1]; first compound 0.3162 µM,0.445
same,relative viability,[1]; first compound 1 µM,0.407
same,relative viability,[2]; first compound 0.01 µM,0.725
same,relative viability,[2]; first compound 0.03162 µM,0.64
same,relative viability,[2]; first compound 0.1 µM,0.67
same,relative viability,[2]; first compound 0.3162 µM,0.687
same,relative viability,[2]; first compound 1 µM,0.63
same,relative viability,[3]; first compound 0.01 µM,0.848
same,relative viability,[3]; first compound 0.03162 µM,1.03
same,relative viability,[3]; first compound 0.1 µM,0.797
same,relative viability,[3]; first compound 0.3162 µM,0.848
same,relative viability,[3]; first compound 1 µM,0.95
same,relative viability,[4]; first compound 0.01 µM,1.02
same,relative viability,[4]; first compound 0.03162 µM,0.671
same,relative viability,[4]; first compound 0.1 µM,1.06
same,relative viability,[4]; first compound 0.3162 µM,1.11
same,relative viability,[4]; first compound 1 µM,1.24
